According to patent US7115556B2, “Use of anti-prolactin agents to treat proliferative conditions” (Greenville Hospital System, priority 1998, dated 2006):

Legend:
[1] = system: T47D human breast cancer cells; experiment: Cell proliferation assay, cell counting; format: cell-based; settings: for shape of dose response curve, T-47D cell number: FIG. 4; for proliferation of T47D cells relative to untreated control cultures: FIGS. 5A-B
Method: Cell proliferation assays. hPRLA was tested for its ability to inhibit breast cancer cell proliferation in tissue culture. The human breast cancer cells were grown in corresponding culture media according to ATCC recommendations. Cells were maintained at 37° C. in a humidified atmosphere of 5% CO2 in air. The assay conditions were essentially as described by Ginsburg and Vonderharr (1995, Cancer Res. 55:2591–2595). For individual growth experiments, cells were plated in 12 well culture plates at a density of approximately 2×10^4 /ml, 1 ml/ well. Cells were then allowed to attach for one day (T-47D, MCF-7, HTB19, and HTB20 cells, except for HTB 123, which is a suspension cells), then the overlying media was removed and changed to serum-free conditions with media containing ITS^+ (insulin-transferring-selenium-BSA-linoleic acid culture supplement; Collaborative Research Bedford, Mass.). Varying concentrations of hPRL alone or in combination with hPRLA were introduced. After an additional three days in culture, cells were harvested after brief trypsinization and counted in a cell counter.

[2] = system: hGH receptor on T-47D and HTB123 cells; experiment: Competitive radioreceptor binding assay; parameters: species or system human; settings: T-47D and HTB123 compared to leukemia, lymphoma and retinoblastoma cells
[3] = system: tyrosine phosphorylation of STAT protein; settings: literature; cited from earlier work
[4] = system: T47-D human breast cancer cells; experiment: 96 well cell proliferation assay with conditioned media (MTS-PMS); format: cell-based
Method: HPRLG129R Conditioned Media. The assay conditions were modified from that described by Ginsburg and Vonderharr (1995, Cancer Res. 55:2591–2595). T47-D cells were trypsinized and passed into 96 well plates in RPMI-1640 media containing 1% DCC-FCS in a volume of 100 μl/well. The optimal cell number/well for each cell line was pre-determined after titration assay. For T47-D cells, 15,000 cells/well were plated. The cells were allowed to settle and adhere overnight (12–18 hours) and subsequently various concentrations of either hPRL, hRPL-G129R, E2 or 4-OH-Tamoxifen in a total volume of 100 μl of culture media were added. Purified hPRL (kindly provided by Dr. Parlow, National Hormone & Pituitary Program, NIH) was used as a positive control for hPRL produced from stable L cells. Cells were incubated for an additional 96 hours at 37° C. in a humidified 5% CO2 incubator. After incubation, MTS-PMS solution (Cell Titer 96 Aqueous kit, Promega Corp.) was added to each well, following the manufacturer's instructions. Plates were read at 490 nm using a BIO-RAD benchmark microplate reader. The experiments were carried out in triplicates and repeated three to six times for each cell line.

[5] = system: T-47D human breast cancer cells; experiment: TUNEL assay, T-47D; format: cell-based
Method: (§1) Cell Culture. T-47D cells obtained from ATCC were grown in RPMI 1640 (phenol red free), supplemented with 10% FBS (GIBCO BRL). BT-474 cells were grown in RPMI 1640 medium (phenol red free) supplemented with 10% FBS and ATCC recommended supplements. MCF-7 cells were grown in DMEM medium (phenol red free), supplemented with 10% FBS. The cells were grown at 37° C. in a humid atmosphere in the presence of 5% CO2. The MDA-MB-134 cells were grown in Leibovitz's L-15 medium supplemented with 20% FBS and grown in CO2 free atmosphere. The breast cancer cells were trypsinized (0.02% Trypsin—EDTA) and grown in their respective media (phenol red free) supplemented with 10% CSS (Charcoal stripped serum) for a week. Subsequently the cells were trypsinized again and plated onto an 8 chambered slide system (Lab Tek II) at a confluence of 60–70% per chamber. The next day treatments were performed on the breast cancer cells using their respective media(phenol red free), supplemented with 1% CSS. The MDA-MB-134 VI cells were grown in phenol red containing medium, but with the same serum conditions as the other breast cancer cells.
(§2) Terminal deoxynucleotidly transferase mediated dUTP nick end labeling (TUNEL) assay. Nicks of the fragmented DNA are labeled at their 3-OH ends. The fluorescein-labeled dUTP is incorporated at the 3-OH ends by using the enzyme terminal deoxynucleotidyl transferase. After the assigned period of treatment the chambers were dismantled as per the manufacturer's instructions and the TUNEL assay (Apoptosis detection system, Fluorescein- Promega) was performed as per the manufacturer's instructions. The slide was examined under a FITC filter using an Olympus IX 70 microscope system.

[6] = system: MCF-7 cells; experiment: TUNEL assay, MCF-7; format: cell-based, human; settings: 4-OH-Tamoxifen 1 μM, 24 hours
Method: as §1
Terminal deoxynucleotidly transferase mediated dUTP nick end labeling (TUNEL) assay. Nicks of the fragmented DNA are labeled at their 3-OH ends. The fluorescein-labeled dUTP is incorporated at the 3-OH ends by using the enzyme terminal deoxynucleotidyl transferase. […]

[7] = system: BT-474 cells; experiment: TUNEL assay, BT-474; format: cell-based, human; settings: 4-OH-Tamoxifen 1 μM, 24 hours
Method: as §1, §2

[8] = system: tyrosine phosphorylation of STAT5 protein in T-47D human breast cancer cells; experiment: hPRL induction of tyrosine phosphorylation of STAT5 protein (Example 8); format: cell-based; settings: T-47D cells, 5 nM of hormone alone, Western blot FIG. 3
Source text: Assay of hPRL induction of tyrosine phosphorylation of STAT5 protein. […] Tyrosyl phosphorylation of STAT 5 is a receptor mediated event and is thought to be an important step in ligand-induced signal transduction (Wakao et al., 1994, EMBO J. 13: 2182–2191; Kazansky et al., 1995, Mol. Endocrinol. 9:1598–1609; Waxman et al., 1995, J. Biol. Chem. 270:13262–13270). This assay was used to evaluate the ability of hPRL and hPRLA to inhibit induction of STAT 5 phosphorylation by wild type PRL.
Briefly, human breast cancer cells were plated in 12-well plates. After pre-incubation in serum-free DMEM for 2–3 hours, the cells were exposed to various concentration of hPRL and hPRLA in serum-free DMEM. The cells were incubated for 15 min at 37° C., washed once with PBS, and lysed in 300 μl lysis buffer (50 mM Tris-HCl, pH 6.8, 1% SDS, 1% β-mecaptoethanol, 0.1M DTT, 5% Sucrose, 100 uM Sodium Orthovanadate, and 0.6% bromphenol blue). Thirty microliters of cell lysates were subjected to 4–12.5% SDS-PAGE and immunoblot analysis using horse radish peroxidase (HRP)-conjugated anti-phosphotyrosine antibody PY20 and ECL reagent kit (Amersham, Ill.). Blots were then exposed to X-ray films and developed using standard procedures (Kodak, Rochester, N.Y.). This assay has been described in Chen et al., 1994, J. Biol. Chem. 269: 15892–15897; Chen et al., 1995, Endocrinol. 136:660–667; Wang et al., 1994, Proc. Natl. Acad. Sci. U.S.A. 91:1391–1395; Chen et al., 1995, Mol. Endocrinol. 9(3):292–302; Harding et al., 1996, J. Biol. Chem. 271(12):6708–6712.

[9] = system: T47D human breast cancer cells; experiment: Mixed cell culture assay with transfected L cells, T47D; format: cell-based; settings: co-culture with transfected L cells, 24 h to five days
Source text: For certain experiments, a mixed cell culture assay was used, diagramatically represented in FIG. 6. In this assay, breast cancer cells were co-cultured with expressor cells which had been transfected with nucleic acid encoding PRL or a PRL variant and expressing those recombinant proteins. By varying the number of expressor cells, the amount of PRL or PRL variant present in the mixed cell culture was increased or decreased. […] In certain wells, which served as a control, no expresser cells were added. Then, increasing numbers of expresser cells (transfected L cells expressing either HPRL (L-PRL) or hPRLA (L-PRLA)) were added to breast cancer cell-containing wells to create mixed cultures. The same numbers of expressor cells were cultured in parallel (without T47D cells) to serve as controls. After culturing under standard conditions for a period of time, the number of cells present in the wells was counted, and the number of L cells in the corresponding control culture was subtracted. The resulting number could then be compared to the number of T47D cells in the T47D control culture to evaluate the effects of the recombinant product on breast cancer cell proliferation.

Molecule: hGH: human growth hormone
- shape of dose response curve, T-47D cell number [1]: bell shaped dose response curves
- hGH receptor specific binding [2]: minimum

Molecule: hGH-G120R: GH antagonist, variant of human GH with glycine at position 120 substituted with arginine
- effect on GH induction of STAT protein phosphorylation [3]: inhibit GH induction of STAT protein phosphorylation in a dose dependent manner

Molecule: CC/C(=C(\c1ccccc1)c1ccc(OCCN(C)C)cc1)c1ccccc1 [tamoxifen, reference compound]
- proliferation of T47D cells relative to untreated control cultures [1]: comparable inhibitory effect

Molecule: CC/C(=C(\c1ccc(O)cc1)c1ccc(OCCN(C)C)cc1)c1ccccc1 [4-OH-Tamoxifen, reference compound]
- inhibition of cell proliferation ([4]; 100 nM 4-OH-Tamoxifen alone): 15%
- maximum inhibition by a single dose ([4]; 4-OH-Tamoxifen at 500 nM, T47-D): approximately 15 % of control
- induction of apoptosis ([5]; 4-OH-Tamoxifen 1 μM, 24 hours): did not induce apoptosis
- induction of apoptosis [6]: did not induce apoptosis
- induction of apoptosis [7]: did not induce apoptosis

Molecule: estrogen [reference compound]
- proliferation of T47D cells relative to untreated control cultures [1]: increased proliferation

B1: hPRL: human prolactin, recombinant from transfected mouse L cells or purified from NIH (protein)
chain: LPICPGGAARCQVTLRDLFDRAVVLSHYIHNLSSEMFSEFDKRYTHGRGFITKAINSCHTSSLATPEDKEQAQQMNQKDFLSLIVSILRSWNEPLYHLVTEVRGMQEAPEAILSKAVEIEEQTKRLLEGMELIVSQVHPETKENEIYPVWSGLPSLQMADEESRLSAYYNLLHCLRRDSHKIDNYLKLLKCRIIHNNNC
- maximum response in the presence of E2 compared to hPRL alone ([4]; hPRL 100 ng/ml with 10 nM E2): more than tripled
- maximum stimulation over basal levels ([4]; hPRL 250 ng/ml, single dose, four-day incubation): approximately 20%
- effect on T47-D proliferation, dose response ([4]; single dose, four-day incubation): stimulated T47-D proliferation in a dose dependent manner
- shape of dose response curve, T-47D cell number [1]: bell shaped dose response curves
- proliferation of T47D cells relative to untreated control cultures [1]: increased proliferation
- induction of phosphorylation of STAT5 proteins [8]: induced
- reversal of G129R-induced DNA fragmentation ([5]; 4:1 ratio (500 ng/ml hPRL, 125 ng/ml hPRL-G129R)): competitively reverse the DNA fragmentation
- T47D proliferation relative to untreated T47D cell cultures [9]: increase in T47D proliferation
